Data on 22 compounds can be found in patent US12162890B2 (Novartis AG, priority 2015, dated 2024).

The target in this test is HEK293 cells with stable expression of the GRIN1 gene and tetracycline-inducible expression of the GRIN2B gene (NMDA receptor, NR2B) (Homo sapiens, UniProt Q13224). Nature of the test: Fluo-8 Ca2+ flux assay: reversal of Ro 25-6981-mediated suppression of the Ca2+ response to co-agonist (glutamate/glycine). Note: test concentration or dose not given here. Format: cell-based. Conditions: reversal of the Ro 25-6981 suppression of the Ca2+ response to co-agonist (glutamate/glycine). In general terms: Calcium assays in cells follow changes in intracellular calcium, usually with a dye or a luminescent sensor.
HEK293 cells with stable expression of the GRIN1 gene and tetracycline-inducible expression of the GRIN2B gene (NMDA receptor, NR2B), sequence (Q13224 27-1484, other chains not shown): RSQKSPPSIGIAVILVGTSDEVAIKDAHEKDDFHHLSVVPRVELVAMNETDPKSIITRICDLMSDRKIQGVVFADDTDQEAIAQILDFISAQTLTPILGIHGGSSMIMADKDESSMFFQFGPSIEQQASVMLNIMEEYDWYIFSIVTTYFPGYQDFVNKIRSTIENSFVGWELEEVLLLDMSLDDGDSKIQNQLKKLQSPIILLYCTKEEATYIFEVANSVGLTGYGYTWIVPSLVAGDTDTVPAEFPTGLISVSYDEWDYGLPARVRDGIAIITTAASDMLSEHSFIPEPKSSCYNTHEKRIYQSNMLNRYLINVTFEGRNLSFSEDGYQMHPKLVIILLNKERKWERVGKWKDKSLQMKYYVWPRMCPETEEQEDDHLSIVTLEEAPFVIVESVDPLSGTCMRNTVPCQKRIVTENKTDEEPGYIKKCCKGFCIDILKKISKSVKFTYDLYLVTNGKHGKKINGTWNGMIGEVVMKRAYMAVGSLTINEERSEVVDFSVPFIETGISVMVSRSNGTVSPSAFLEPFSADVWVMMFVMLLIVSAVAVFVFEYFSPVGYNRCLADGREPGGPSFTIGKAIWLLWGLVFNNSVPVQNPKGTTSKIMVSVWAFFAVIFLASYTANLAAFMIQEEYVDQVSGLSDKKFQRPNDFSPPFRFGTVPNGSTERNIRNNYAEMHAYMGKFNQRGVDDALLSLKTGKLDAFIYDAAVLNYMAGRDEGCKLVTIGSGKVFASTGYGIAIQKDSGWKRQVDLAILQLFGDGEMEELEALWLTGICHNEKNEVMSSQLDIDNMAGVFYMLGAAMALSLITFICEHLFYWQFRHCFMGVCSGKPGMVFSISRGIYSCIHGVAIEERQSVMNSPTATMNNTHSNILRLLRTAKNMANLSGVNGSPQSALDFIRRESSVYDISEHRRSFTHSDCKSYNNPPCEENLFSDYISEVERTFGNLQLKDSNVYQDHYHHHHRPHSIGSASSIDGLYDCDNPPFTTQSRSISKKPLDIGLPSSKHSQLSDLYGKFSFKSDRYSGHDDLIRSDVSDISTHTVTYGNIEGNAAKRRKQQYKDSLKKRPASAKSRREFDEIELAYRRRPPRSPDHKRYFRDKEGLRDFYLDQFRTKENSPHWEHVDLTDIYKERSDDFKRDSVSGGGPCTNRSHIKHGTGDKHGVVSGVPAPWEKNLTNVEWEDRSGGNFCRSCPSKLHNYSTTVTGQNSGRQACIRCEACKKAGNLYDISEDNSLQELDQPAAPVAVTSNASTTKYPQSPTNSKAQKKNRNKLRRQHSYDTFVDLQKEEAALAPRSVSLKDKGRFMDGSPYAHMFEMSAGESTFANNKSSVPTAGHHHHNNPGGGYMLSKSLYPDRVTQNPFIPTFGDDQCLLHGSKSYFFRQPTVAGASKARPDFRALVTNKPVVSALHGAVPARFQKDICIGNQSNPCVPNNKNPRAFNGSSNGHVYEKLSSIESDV

As to `Cn1cc(-n2cc(-c3ccc(Cl)c(Cl)c3)c3c(=O)n(CC(=O)N4CC(C)(F)C4)ccc32)cn1` [Example 284, 3-(3,4-dichlorophenyl)-5-(2-(3-fluoro-3-methylazetidin-1-yl)-2-oxoethyl)-1-(1-methyl-1H-pyrazol-4-yl)-1H-pyrrolo[3,2-c]pyridin-4(5H)-one], the “Response Recovered (%)” value stood at 5.2%.
For `COCCn1cc(-c2ccc(Cl)c(C(F)(F)F)c2)c2c(=O)n(CC(=O)N3CCCC3)cnc21` [Example 185, 5-(4-chloro-3-(trifluoromethyl)phenyl)-7-(2-methoxyethyl)-3-(2-oxo-2-(pyrrolidin-1-yl)ethyl)-3H-pyrrolo[2,3-d]pyrimidin-4(7H)-one], the “Response Recovered (%)” value is given as 76%.
As to `O=C(Cn1cnc2csc(-c3ccc(Cl)c(C(F)(F)F)c3)c2c1=O)N1CCCC1` [Example 366, 5-(4-chloro-3-(trifluoromethyl)phenyl)-3-(2-oxo-2-(pyrrolidin-1-yl)ethyl)thieno[3,4-d]pyrimidin-4(3H)-one], the “Response Recovered (%)” value was 34%.
As for `N#Cc1cn(CC(=O)N2CCCC2)c(=O)c2c(-c3ccc(F)c(C(F)(F)F)c3)csc12` [Example 100, 3-(4-fluoro-3-(trifluoromethyl)phenyl)-4-oxo-5-(2-oxo-2-(pyrrolidin-1-yl)ethyl)-4,5-dihydrothieno[3,2-c]pyridine-7-carbonitrile], the figure is 34%; as for `O=C(Cn1cnc2c(Br)sc(-c3ccc(Cl)c(F)c3)c2c1=O)N1CCCC1` [Example 368, 7-bromo-5-(4-chloro-3-fluorophenyl)-3-(2-oxo-2-(pyrrolidin-1-yl)ethyl)thieno[3,4-d]pyrimidin-4(3H)-one], 41%; as for `O=C(Cn1cnc2snc(-c3ccc(Cl)cc3)c2c1=O)N1CCCC1` [Example 380, 3-(4-chlorophenyl)-5-(2-oxo-2-(pyrrolidin-1-yl)ethyl)isothiazolo[5,4-d]pyrimidin-4(5H)-one], 6%.
As for `O=C(Cn1cnc2csc(-c3ccc(C(F)(F)F)cc3)c2c1=O)N1CCCC1` [Example 356, 3-(2-oxo-2-(pyrrolidin-1-yl)ethyl)-5-(4-(trifluoromethyl)phenyl)thieno[3,4-d]pyrimidin-4(3H)-one], the figure is 11%; as for `O=C(Cn1ccn2ncc(-c3ccc(F)c(C(F)(F)F)c3)c2c1=O)N1CC(F)C1` [Example 322, 3-(4-fluoro-3-(trifluoromethyl)phenyl)-5-(2-(3-fluoroazetidin-1-yl)-2-oxoethyl)pyrazolo[1,5-a]pyrazin-4(5H)-one], 33%.
For the compound `CN(C)Cc1cn(CC(=O)N2CCC(F)C2)c(=O)c2c(-c3ccc(Cl)c(Cl)c3)csc12` (stereo not shown) [Example 123, 3-(3,4-dichlorophenyl)-7-((dimethylamino)methyl)-5-(2-(3-fluoropyrrolidin-1-yl)-2-oxoethyl)thieno[3,2-c]pyridin-4(5H)-one], the “Response Recovered (%)” value is given as 70%.
As to `O=C(Cn1cnc2onc(-c3ccc(Cl)cc3)c2c1=O)N1CCC(F)C1` (stereo not shown) [Example 386, 3-(4-chlorophenyl)-5-(2-(3-fluoropyrrolidin-1-yl)-2-oxoethyl)isoxazolo[5,4-d]pyrimidin-4(5H)-one], the “Response Recovered (%)” value is 4%.
Next, `O=C(Cn1ccc2scc(-c3ccc(F)c(C(F)(F)F)c3)c2c1=O)N1CC2C(C1)C2(F)F` (stereo not shown) [Example 72, 5-(2-(6,6-difluoro-3-azabicyclo[3.1.0]hex-an-3-yl)-2-oxoethyl)-3-(4-fluoro-3-(trifluoromethyl)phen-yl)thieno[3,2-c]pyridin-4(5H)-one]: 37%; `O=C(Cn1ccn2ccc(-c3ccc(F)c(Cl)c3)c2c1=O)N1CCC(F)C1` (stereo not shown) [Example 393, 8-(3-chloro-4-fluorophenyl)-2-(2-(3-fluoropyrrolidin-1-yl)-2-oxoethyl)pyrrolo[1,2-a]pyrazin-1(2H)-one]: 49%; `O=C(Cn1cnc2[nH]cc(-c3ccc(Cl)cc3)c2c1=O)N1CCCC1` [Example 150, 5-(4-chlorophenyl)-3-(2-oxo-2-(pyrrolidin-1-yl)ethyl)-3H-pyrrolo[2,3-d]pyrimidin-4(7H)-one]: 31%.
As for `O=C(Cn1cnc2c(c(-c3ccc(F)c(Cl)c3)cn2CCO)c1=O)N1CCCC1` [Example 195, 5-(3-chloro-4-fluorophenyl)-7-(2-hydroxyethyl)-3-(2-oxo-2-(pyrrolidin-1-yl)ethyl)-3H-pyrrolo[2,3-d]pyrimidin-4(7H)-one], the figure is 21%; as for `O=C(Cn1ccc2scc(-c3ccc(Cl)c(Cl)c3)c2c1=O)N1C[C@@H](F)[C@@H](F)C1` [Example 16, 3-(3,4-dichlorophenyl)-5-(2-((3S,4R)-3,4-difluoropyrrolidin-1-yl)-2-oxoethyl)thieno[3,2-c]pyridin-4(5H)-one], 107%.
Next, `O=C(Cn1ncc2scc(-c3ccc(Cl)c(F)c3)c2c1=O)N1CC(F)(F)C1` [Example 340, 3-(4-chloro-3-fluorophenyl)-5-(2-(3,3-difluoroazetidin-1-yl)-2-oxoethyl)thieno[2,3-d]pyridazin-4(5H)-one]: 3%; `O=C(Cn1cnc2csc(-c3ccc(Cl)c(F)c3)c2c1=O)N1CC(F)(F)C1` [Example 363, 5-(4-chloro-3-fluorophenyl)-3-(2-(3,3-difluoroazetidin-1-yl)-2-oxoethyl)thieno[3,4-d]pyrimidin-4(3H)-one]: 16%; `O=C(Cn1cc(N2CCCC2)c2scc(-c3ccc(F)c(C(F)(F)F)c3)c2c1=O)N1CCCC1` [Example 114, 3-(4-fluoro-3-(trifluoromethyl)phenyl)-5-(2-oxo-2-(pyrrolidin-1-yl)ethyl)-7-(pyrrolidin-1-yl)thieno[3,2-c]pyridin-4(5H)-one]: 15%.
As for `O=C(Cn1cnc2[nH]cc(-c3cnc(Cl)c(C(F)(F)F)c3)c2c1=O)N1CCC(F)C1` (stereo not shown) [Example 183, 5-(6-chloro-5-(trifluoromethyl)pyridin-3-yl)-3-(2-(3-fluoropyrrolidin-1-yl)-2-oxoethyl)-3H-pyrrolo[2,3-d]pyrimidin-4(7H)-one], the “Response Recovered (%)” value is recorded as 14%.
As for `Cn1cnc(-n2cc(-c3ccc(F)c(C(F)(F)F)c3)c3c(=O)n(CC(=O)N4CC(C)(F)C4)ccc32)n1` [Example 268, 3-(4-fluoro-3-(trifluoromethyl)phenyl)-5-(2-(3-fluoro-3-methylazetidin-1-yl)-2-oxoethyl)-1-(1-methyl-1H-1,2,4-triazol-3-yl)-1H-pyrrolo[3,2-c]pyridin-4(5H)-one], the figure is 52%; as for `Cn1cc(-c2ccc(F)c(Cl)c2)c2c(=O)n(CC(=O)N3CC(F)(F)C3)cnc21` [Example 162, 5-(3-chloro-4-fluorophenyl)-3-(2-(3,3-difluoroazetidin-1-yl)-2-oxoethyl)-7-methyl-3H-pyrrolo[2,3-d]pyrimidin-4(7H)-one], 40%; as for `O=C(Cn1ccc2[nH]cc(-c3ccc(Cl)c(Cl)c3)c2c1=O)N1CCC(F)C1` (stereo not shown) [Example 214, 3-(3,4-dichlorophenyl)-5-(2-(3-fluoropyrrolidin-1-yl)-2-oxoethyl)-1H-pyrrolo[3,2-c]pyridin-4(5H)-one], 84%.
